Experimental data: patent US10829458B2 (Araxes Pharma LLC, priority 2015, dated 2020)

Molecular target: T1, KRAS G12C 1-169, his-tagged protein, GDP-loaded (Homo sapiens, UniProt P01116, G12C)
T1 construct: KRAS G12C 1-169, his-tagged protein, GDP-loaded
Experiment: Biochemical assay: covalent modification of KRAS G12C measured by mass spectrometry (RapidFire/TOF or Q-Exactive)
Conditions: covalent binding to KRAS G12C
Method: Test compounds were prepared as 10 mM stock solutions in DMSO (Fisher cat #BP-231-100). KRAS G12C 1-169, his-tagged protein, GDP-loaded was diluted to 2 μm in buffer (20 mM Hepes, 150 mM NaCl, 1 mM MgCl2). Compounds were tested for activity as follows:
Compounds were diluted to 50× final test concentration in DMSO in 96-well storage plates. Compound stock solutions were vortexed before use and observed carefully for any sign of precipitation. Dilutions were as follow: • For 100 μM final compound concentration, compounds were diluted to 5000 μM (5 μl 10 mM compound stock+5 μl DMSO and mixed well by pipetting. • For 30 μM final compound concentration, compounds were diluted to 1500 μM (3 μl 10 mM compound stock+17p DMSO) and mixed well by pipetting. • For 10 μM final compound concentration, compounds were diluted to 500 μM (2 μl 10 mM compound stock+38p DMSO) and mixed well by pipetting. 49p of the stock protein solution was added to each well of a 96-well PCR plate (Fisher cat #1423027). 1 μl of the diluted 50× compounds were added to appropriate wells in the PCR plate using 12-channel pipettor. Reactions were mixed carefully and thoroughly by pipetting up/down with a 200·1 multi-channel pipettor. The plate was sealed well with aluminum plate seal, and stored in drawer at room temperature for 30 min, 2 hour or 24 hrs. 5·1 of 2% formic acid (Fisher cat #A117) in DI H2O was then added to each well followed by mixing with a pipette. The plate was then resealed with aluminum seal and stored on dry ice until analyzed as described below.
The above described assays were analyzed by mass spectrometry according to one of the following two procedures:
The MS instrument is set to positive polarity, 2 GHz resolution, and low mass (1700) mode and allowed to equilibrate for 30 minutes. The instrument is then calibrated, switched to acquisition mode and the appropriate method loaded.
After another 30 minute equilibration time, a blank batch (i.e., buffer) is run to ensure equipment is operating properly. The samples are thawed at 37° C. for 10 minutes, briefly centrifuged, and transfer to the bench top. Wells A1 and H12 are spiked with 1 uL 500 uM internal standard peptide, and the plates centrifuged at 2000×g for 5 minutes. The method is then run and masses of each individual well recorded.
The masses (for which integration data is desired) for each well are pasted into the platemap and exported from the analysis. Masses for the internal standards are exported as well. The data at 50 ppm is extracted for the +19 charge state, and identity of well A1 is assigned using the internal standard spike and integrated. Peak data is exported as a TOF list and the above steps are repeated individually, for the +20, 21, 22, 23, 24, and 25 charge states.
The masses and peak intensities of KRAS G12C protein species were measured using a Dionex RSLCnano system (Thermo Scientific) connected to a Q Exactive Plus mass spectrometer (Thermo Scientific).
[…] of sample was each loaded onto a Aeris™ 3.6 μm WIDEPORE C4 200 Å, LC Column 50×2.1 mm column maintained at 40° C. at a flow rate of 600 μl min^−1 with […] (0.1% formic acid in acetonitrile). The liquid chromatography conditions were 20% solvent B for 1 min, 20% to 60% solvent B for 1.5 min, 60% to 90% solvent for 0.5 min, 90% solvent B for 0.2 min, 90% to 20% solvent B for 0.2 min, and then equilibrated for 1.6 min before the following sample injection. The flow rate was maintained at 600 μl min^−1 throughout the sample analysis.
The mass spectrometer was operated in profile mode at a resolution of 17500, 5 microscans, using 50 msec max injection time and an AGC target of 1e6, and a full mass range from 800-1850 m/z was recorded. The HCD trapping gas was optimized for maximum sensitivity for intact proteins. […]

SMILES | Binding % (compounds of structure (I)) | Binding % (compounds of structure (III))
C=CC(=O)N1CCN(c2c(C#N)c(N3CC(N(C)C)C3)nc3c(F)c(-c4c(O)cccc4F)c(Cl)cc23)CC1 [Example I-197, 4-(4-acryloyl-piperazin-1-yl)-6-chloro-2-(3-(dimethyl-amino)azetidin-1-yl)-8-fluoro-7-(2-fluoro-6-hydroxyphenyl) quinoline-3-carbonitrile] | ++ (++ indicates binding activity from 50 to 90%) | –
Cc1ccc2[nH]ncc2c1-c1c(Cl)cc2c(N3CCN(C(=O)/C=C/CN(C)C)CC3)nc(OCCN3CCCC3=O)nc2c1F [Example I-2, (E)-1-(2-(6-chloro-4-(4-(4-(dimethylamino)but-2-enoyl)piperazin-1-yl)-8-fluoro-7-(5-methyl-1H-indazol-4-yl)quinazolin-2-yloxy)ethyl) pyrrolidin-2-one] | + (+ indicates binding activity up to 50%) | –
C=CC(=O)N1CCN(c2ncnc3c(F)c(-c4c(O)cccc4F)c(Cl)cc23)[C@H](C)C1 [III-12, 1-((3R)-4-(6-chloro-8-fluoro-7-(2-fluoro-6-hydroxy-phenyl)quinazolin-4-yl)-3-methyl-piperazin-1-yl)prop-2-en-1-one] | – | + (+ indicates binding activity up to 50%)
C=CC(=O)N1CCN(c2nc(OCCn3ccnc3)nc3c(F)c(-c4c(C)ccc5[nH]ncc45)c(Cl)cc23)CC1 [Example I-7, 1-(4-(2-(2-(1H-imidazol-1-yl)ethoxy)-6-chloro-8-fluoro-7-(5-methyl-1H-indazol-4-yl)quinazolin-4-yl)piperazin-1-yl)prop-2-en-1-one] | ++ (++ indicates binding activity from 50 to 90%) | –
C=CC(=O)N1CCN(c2c(C#N)c(NC3CCN(C4CC4)CC3)nc3c(F)c(-c4c(C)ccc5[nH]ncc45)c(Cl)cc23)CC1 [Example I-202, 4-(4-acryloyl-piperazin-1-yl)-6-chloro-2-((1-cyclopropyl-piperidin-4-yl)amino)-8-fluoro-7-(5-methyl-1H-indazol-4-yl) quinoline-3-carbonitrile] | ++ (++ indicates binding activity from 50 to 90%) | –
C=CC(=O)N1CCN(c2nc(OCCO)nc3c(F)c(-c4cc(O)cc5ccccc45)c(Cl)cc23)CC1 [Example I-83, 1-(4-(6-chloro-8-fluoro-2-(2-hydroxyethoxy)-7-(3-hydroxy-naphthalen-1-yl)quinazolin-4-yl)piperazin-1-yl)prop-2-en-1-one] | +++ (+++ indicates binding activity greater than 90%) | –
C=CC(=O)N1CCN(c2nc(OCc3cnc(OC)nc3)nc3c(F)c(-c4c(O)cccc4F)c(Cl)cc23)CC1 [Example I-118, 1-(4-(6-chloro-8-fluoro-7-(2-fluoro-6-hydroxyphenyl)-2-((2-methoxy-pyrimidin-5-yl)methoxy)quinazolin-4-yl)piperazin-1-yl) prop-2-en-1-one] | +++ (+++ indicates binding activity greater than 90%) | –
C=CC(=O)N1CCN(c2nc(NC3CCN(C4CC4)CC3)nc3c(F)c(-c4c(C)ccc5cn[nH]c45)c(Cl)cc23)CC1 [Example I-196, 1-(4-(6-chloro-2-((1-cyclo-propylpiperidin-4-yl)amino)-8-fluoro-7-(6-methyl-1H-indazol-7-yl)quinazolin-4-yl)piperazin-1-yl) prop-2-en-1-one] | ++ (++ indicates binding activity from 50 to 90%) | –
C=CC(=O)N1CCN(c2nc(NC3CC4CCC(C3)N4C3CC3)nc3c(F)c(-c4c(C)ccc5[nH]ncc45)c(Cl)cc23)CC1 (stereo not drawn) [Example I-188, 1-(4-(6-chloro-2-((8-cyclopropyl-8-azabicyclo[3.2.1]octan-3-yl)amino)-8-fluoro-7-(5-methyl-1H-indazol-4-yl)quinazolin-4-yl)piperazin-1-yl) prop-2-en-1-one] | ++ (++ indicates binding activity from 50 to 90%) | –
C=CC(=O)N1CCN(c2nc(OCc3ccc(C)nc3)nc3c(F)c(-c4c(O)cccc4F)c(Cl)cc23)CC1 [Example I-104, 1-(4-(6-chloro-8-fluoro-7-(2-fluoro-6-hydroxyphenyl)-2-((6-methyl-pyridin-3-yl)methoxy)quinazolin-4-yl)piperazin-1-yl) prop-2-en-1-one] | + (+ indicates binding activity up to 50%) | –
C=CC(=O)N1CCN(c2nc(N3CC(N(C)C)C3)nc3c(F)c(-c4c(O)cccc4F)c(Cl)cc23)CC1 [Example I-55, 1-(4-(6-chloro-2-(3-(dimethyl-amino)azetidin-1-yl)-8-fluoro-7-(2-fluoro-6-hydroxyphenyl)quinazolin-4-yl)piperazin-1-yl) prop-2-en-1-one] | +++ (+++ indicates binding activity greater than 90%) | –
C=CC(=O)N1CCN(c2nc(OCC3CCN(C4CC4)CC3)nc3c(F)c(-c4c(O)cccc4F)c(Cl)cc23)CC1 [Example I-172, 1-(4-(6-chloro-2-((1-cyclopropyl-piperidin-4-yl)methoxy)-8-fluoro-7-(2-fluoro-6-hydroxyphenyl)quinazolin-4-yl)piperazin-1-yl) prop-2-en-1-one] | +++ (+++ indicates binding activity greater than 90%) | –
C=CC(=O)N1CCN(c2nc(N)nc3c(F)c(-c4c(O)cccc4F)c(Cl)cc23)CC1 [Example I-175, 1-(4-(2-amino-6-chloro-8-fluoro-7-(2-fluoro-6-hydroxyphenyl)quinazolin-4-yl)piperazin-1-yl) prop-2-en-1-one] | ++ (++ indicates binding activity from 50 to 90%) | –
C=CC(=O)N1CCN(c2nc(OCCN3CCC3)nc3c(F)c(-c4c(O)cccc4F)c(Cl)cc23)CC1 [Example I-43, 1-(4-(2-(2-(azetidin-1-yl)ethoxy)-6-chloro-8-fluoro-7-(2-fluoro-6-hydroxyphenyl)quinazolin-4-yl)piperazin-1-yl) prop-2-en-1-one] | +++ (+++ indicates binding activity greater than 90%) | –
C=CC(=O)N1CCN(c2nc(OCCP(C)(C)=O)nc3c(F)c(-c4c(O)cccc4F)c(Cl)cc23)CC1 [Example I-206, 1-(4-(6-chloro-2-(2-(dimethyl-phosphoryl)ethoxy)-8-fluoro-7-(2-fluoro-6-hydroxyphenyl)quinazolin-4-yl)piperazin-1-yl) prop-2-en-1-one] | +++ (+++ indicates binding activity greater than 90%) | –
C=CC(=O)N1CCN(c2nc(N3CC(N(CC)CC)C3)nc3c(F)c(-c4c(C)ccc5[nH]ncc45)c(Cl)cc23)CC1 [Example I-144, 1-(4-(6-chloro-2-(3-(diethylamino)azetidin-1-yl)-8-fluoro-7-(5-methyl-1H-indazol-4-yl)quinazolin-4-yl)piperazin-1-yl) prop-2-en-1-one] | +++ (+++ indicates binding activity greater than 90%) | –
C=CC(=O)N1CCN(c2nc(NC3CN(c4ncccn4)C3)nc3c(F)c(-c4c(O)cccc4F)c(Cl)cc23)CC1 [Example I-182, 1-(4-(6-chloro-8-fluoro-7-(2-fluoro-6-hydroxyphenyl)-2-((1-(pyrimidin-2-yl)azetidin-3-yl)amino)quinazolin-4-yl)piperazin-1-yl) prop-2-en-1-one] | + (+ indicates binding activity up to 50%) | –
C=CC(=O)N1CCN(c2nc(OCCN(C)C)nc3c(F)c(-c4cc(O)cc5ccccc45)c(Cl)cc23)CC1 (atropisomer, axis not shown) [Example I-96, (R)-1-(4-(6-chloro-2-(2-(dimethylamino)ethoxy)-8-fluoro-7-(3-hydroxy-naphthalen-1-yl)quinazolin-4-yl)piperazin-1-yl)prop-2-en-1-one] | + (+ indicates binding activity up to 50%) | –
